Experiment [1] deals with T1, GTPase KRas (Homo sapiens, UniProt P01116, G12C). As to the kind of experiment: Inhibition of KRAS G12C mutant (2 to 188 residues) (unknown origin) expressed in Escherichia coli assessed as inhibition of SOS mediated nucleotide exchange at 21 degreeC for 15 mins by HTRF assay. (In TR-FRET formats the signal depends on donor and acceptor labels being close together.)

Experiment [2] concerns the target T1, GTPase KRas. As to the kind of experiment: Inhibition of KRAS G12C mutant (2 to 188 residues) (unknown origin) expressed in Escherichia coli assessed as inhibition of SOS mediated nucleotide exchange at 4 degreeC for 18 hrs by HTRF assay.
Experiment [3] concerns the target T1, GTPase KRas. As to the kind of experiment: Inhibition of KRAS G12C mutant in human HCC1171 cells assessed as effect on cell alkylation measured after 18 hrs by western blot analysis. It is filed as cell-based. Background: A western blot detects proteins with antibodies after separation by electrophoresis.
Experiment [4] concerns the target T1, GTPase KRas. Put plainly: Inhibition of KRAS G12C mutant (2 to 188 residues) (unknown origin) expressed in Escherichia coli assessed as inhibition of SOS mediated nucleotide exchange measured after 18 hrs by HTRF assay.

Usually IC50 stands for the concentration at which inhibition is half-maximal. In the case of `C=CC(=O)N1CCN(c2nc(OC[C@@H]3CCCN3C)nc3c2CC[C@]2(CCc4ccccc4C2)C3)C[C@@H]1CC#N`, the IC50 on GTPase KRas [1] is 131 nM; on GTPase KRas [2] it was 60 nM.

For orientation: EC50 means the concentration giving half of the maximal effect. For `C=CC(=O)N1CCN(c2nc(OC[C@@H]3CCCN3C)nc3c2C[C@@H](C)[C@H](c2cc(O)cc4ccccc24)C3)[C@@H](C)C1`, the EC50 at GTPase KRas [3] was under 6.1 nM.

On to `C=CC(=O)N1CCN(c2nc(OCc3cn(C)cn3)nc3c2CC[C@H](c2cc(O)cc4ccccc24)C3)[C@@H](C)C1`, for which the EC50 at GTPase KRas [3] came out at 3000 nM. Further, the IC50 at GTPase KRas [4] was 470 nM.

Take `C=CC(=O)N1CCN(c2nc(OC[C@@H]3CCCN3C)nc3c2CC[C@@]2(CCc4ccccc4C2)C3)C[C@@H]1CC#N`: the IC50 at GTPase KRas [1] worked out at 291 nM; on GTPase KRas [2], 51 nM.

Regarding `C=CC(=O)N1CCN(c2nc(OC[C@@H]3C[C@H](F)CN3C)nc3c2C[C@@H](C)[C@H](c2cc(O)cc4ccccc24)C3)[C@@H](C)C1`, at GTPase KRas [3], the EC50 is 40 nM. In addition, the IC50 on GTPase KRas [4] was found to be 11 nM.

For the compound `C=CC(=O)N1CCN(c2nc(OC[C@@H]3CCCN3C)nc3c2CCC2(CCc4ccccc4C2)C3)C[C@@H]1CC#N` (stereo partly specified), the figures for the IC50 on GTPase KRas [1] and on GTPase KRas [2] were 142 nM and 46 nM, respectively.

Source of the values: ChEMBL document CHEMBL5046324, “Small-Molecule Inhibitor of the Oncogenic KRASG12C Mutant for the Treatment of Currently Incurable Cancer” (ACS Med Chem Lett, 2022).
